Data as given in patent publication US20240285705A1, “AQUEOUS EXTRACTION OF CANNABINOIDS” (Curaleaf, Inc., priority 2023, published 2024).

Test: Solubilization of cannabinoids in NaOH and KOH solutions
Format: physicochemical
Protocol: Concentration Selection: NaOH and KOH solutions having concentrations ranging from 0M to 2M were prepared and tested for their ability to solubilize D9THCA and CBDA. […] All forms of cannabinoids were extracted using NaOH and KOH. It was also determined that neutral cannabinoids were removed from the plant to a much less extent during base extraction.

Structure (SMILES) | Solubility (NaOH and KOH solutions, concentrations ranging from 0M to 2M) | Degradation by strong base (NaOH/KOH solution above 0.3M)
C=C(C)[C@@H]1CCC(C)=C[C@H]1c1c(O)cc(CCCCC)c(C(=O)O)c1O [CBDA, cannabidolic acid] | higher than D9THC | –
CCCCCc1cc2c(c(O)c1C(=O)O)[C@@H]1C=C(C)CC[C@H]1C(C)(C)O2 [D9THCA, tetrahydrocannabinolic acid] | – | begins to noticeable degrade
